Results on 16 molecules are retold here after ChEMBL document CHEMBL4033687, “Synthesis, biological evaluation and molecular docking studies of chromone hydrazone derivatives as α-glucosidase inhibitors” (Bioorg Med Chem Lett, 2017).

Molecules are shown by their SMILES. pIC50: −log10 of the molar value. Active and inactive are the calls of the source. No cut-off for these calls is given here.

The species named for one experiment is Homo sapiens. Briefly: Non-competitive inhibition of alpha glucosidase (unknown origin) at 10 to 30 uM using p-nitrophenyl alpha-D-glucopyranoside as substrate by line-weaver burk plot method.
Take `NS(=O)(=O)c1ccc(N/N=C/c2coc3ccccc3c2=O)cc1`: the inhibition entry is “Active”.

Molecular target in the next experiment: not listed separately
Briefly: Inhibition of alpha glucosidase (unknown origin) using p-nitrophenyl alpha-D-glucopyranoside as substrate pretreated for 15 mins followed by substrate addition after 30 mins by spectrophotometric method. Details: species or system Homo sapiens.
Regarding `O=C(N/N=C/c1coc2ccccc2c1=O)c1cccs1`, the pIC50 – broadly, the negative decadic logarithm of the IC50, by convention in mol/L – was under 4.00.
As to `O=c1c(/C=N/Nc2ccccc2)coc2ccccc12`, the negative-log IC50 (pIC50) was 4.57.
With `O=C(N/N=C/c1coc2ccccc2c1=O)c1ccc(O)cc1`, the pIC50 was 4.40.
On the same count and under the same terms, the result for `CCOC(=O)N/N=C/c1coc2ccccc2c1=O` reads under 4.00.
Regarding `O=c1c(/C=N/Nc2cccc(Cl)c2)coc2ccccc12`, the negative-log IC50 (pIC50) was under 4.00.
Same read-out and setting: the result for `O=c1c(/C=N/Nc2cccc(Cl)c2)coc2cc(O)ccc12` reads 4.01.
Still for that read-out and setting: the result for `O=C(N/N=C/c1coc2cc(O)ccc2c1=O)c1cccs1` reads 4.22; that for `Nc1ccc(C(=O)N/N=C/c2coc3ccccc3c2=O)cc1`, 4.01; that for `NS(=O)(=O)c1ccc(N/N=C/c2coc3ccccc3c2=O)cc1`, 4.70.
Still for that read-out and setting: with `O=C(N/N=C/c1coc2cc(O)ccc2c1=O)c1ccccc1` the figure was 4.34; with `Nc1ccc(C(=O)N/N=C/c2coc3cc(O)ccc3c2=O)cc1`, 4.51.
For the molecule `CCOC(=O)N/N=C/c1coc2cc(O)ccc2c1=O`, the pIC50 was 4.02.
Turning to `Cc1ccc(S(=O)(=O)N/N=C/c2coc3cc(O)ccc3c2=O)cc1`, the pIC50 was under 4.00.
With `O=C(N/N=C/c1coc2ccccc2c1=O)c1ccccc1`, the negative-log IC50 (pIC50) is under 4.00.
On the same count and under the same terms, with `NS(=O)(=O)c1ccc(N/N=C/c2coc3cc(O)ccc3c2=O)cc1` the figure was 4.60; with `O=C(N/N=C/c1coc2cc(O)ccc2c1=O)c1ccc(O)cc1`, 4.06.
